The text below walks through data of patent publication US10981899B2, “Inhibitors of soluble adenylyl cyclase” (CORNELL UNIVERSITY, priority 2016, dated 2021).

In one data set the test system is mouse brain mitochondria. As to the kind of experiment: Membrane potential in isolated mouse brain mitochondria (uncoupling). The note with it: 50 and 100 μM LRE1, 50 μM KH7.
A further data set deals with MEFs. Description: CellTiter-Glo cytotoxicity assay. The class given is cell-based, mouse. The procedure:
Cell viability, as determined by CellTiter-Glo, is shown as luminescence; values are averages of triplicate determinations ±S.E.M. of a representative experiment repeated at least two times. […] Data represent single measurements of a representative experiment repeated at least two times.
(§1) The next day, compounds were added (ten concentrations), and the plates were incubated for 24 or 48 hrs at 37° C./5% CO2, and viability was quantified by measuring cellular ATP using luminescence (CellTiter-Glo®, Promega, Madison, Wis., USA) or viability based upon amount of DNA (CyQUANT®, ThermoFisher).

Data set [1] in a line: CyQUANT cell proliferation/viability assay. In kind it is cell-based. The method, then:
as §1

Data set [2] deals with T1, human sACt protein (Homo sapiens (Human), UniProt Q96PN6). As to the kind of experiment: RF-MSS in vitro cyclase assay, concentration-response.
T1 sequence (Q96PN6 1-469): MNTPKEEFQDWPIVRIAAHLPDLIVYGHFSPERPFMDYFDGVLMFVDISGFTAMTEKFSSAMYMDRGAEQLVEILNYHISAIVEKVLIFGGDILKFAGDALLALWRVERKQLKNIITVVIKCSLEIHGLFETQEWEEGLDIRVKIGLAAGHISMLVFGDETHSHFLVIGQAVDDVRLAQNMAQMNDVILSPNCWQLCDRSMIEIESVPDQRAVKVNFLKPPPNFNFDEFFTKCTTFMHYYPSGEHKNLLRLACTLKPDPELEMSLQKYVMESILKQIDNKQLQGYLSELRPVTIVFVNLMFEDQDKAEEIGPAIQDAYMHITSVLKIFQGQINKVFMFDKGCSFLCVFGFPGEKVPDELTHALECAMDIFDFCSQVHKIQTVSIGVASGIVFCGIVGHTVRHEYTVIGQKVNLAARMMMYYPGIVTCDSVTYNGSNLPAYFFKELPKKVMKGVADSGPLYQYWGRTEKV
Protocol: To avoid assay dependent artifacts, reproducibility and concentration-dependency were simultaneously assessed in the RF-MSS cyclase assay as well as in an independent colorimetric competitive enzyme immunoassay (i.e., ELISA-based Correlate-EIA Direct cAMP Assay). […] This instrument also includes a Zymark Twister® robotic arm that handles microtiter plates and a purification SPE system. 35 μl of sample was aspirated from each well of a 384-well reaction microtiter plate and then injected onto a graphitized carbon SPE column extraction cartridge, washing with aqueous alkaline buffer and eluting it in an alkaline/organic solvent, onto the electrospray-MS, where the mass spectra of each sample was collected. The RapidFire sipper was washed between sample injections using organic (25% acetonitrile, 25% acetone in 5 mM ammonium acetate, pH 10) and aqueous (5 mM ammonium acetate, pH 10) solvents. RapidFire mass spectrometry screening data were processed and analyzed using Agilent MassHunter Software.
A further data set concerns the target sAC (Homo sapiens (Human), UniProt Q96PN6). As to the kind of experiment: ELISA-based Correlate-EIA Direct cAMP Assay of in vitro sAC activity. Background: An ELISA detects its analyte on a solid surface through an enzyme-linked reagent.
Data set [3] concerns the target T1, human sACt protein. Description: Primary high-throughput screen for sAC inhibitors (RF-MSS cyclase assay). The class given is biochemical. The note with it: screened at 10 μM; 1 mM ATP, 5 mM MgCl2, 5 mM CaCl2, 40 mM NaHCO3.
Protocol: This instrument also includes a Zymark Twister® robotic arm that handles microtiter plates and a purification SPE system. 35 μl of sample was aspirated from each well of a 384-well reaction microtiter plate and then injected onto a graphitized carbon SPE column extraction cartridge, washing with aqueous alkaline buffer and eluting it in an alkaline/organic solvent, onto the electrospray-MS, where the mass spectra of each sample was collected. The RapidFire sipper was washed between sample injections using organic (25% acetonitrile, 25% acetone in 5 mM ammonium acetate, pH 10) and aqueous (5 mM ammonium acetate, pH 10) solvents. RapidFire mass spectrometry screening data were processed and analyzed using Agilent MassHunter Software.
The primary screen was performed in polystyrene 384-well microplates (Greiner Bio One International AG). […] The reagents were dispensed using a liquid handling instrument Multidrop™ Combi Assay buffer (50 mM Tris pH 7.5, 5 mM CaCl2, 5 mM MgCl2, 40 mM NaHCO3, 2 mM DTT) was added first on the 384-well plate (Greiner Bio-One) followed by the compounds. The small molecule compounds were dispensed with a nanohead containing a 384-well array of Norgren Kloehn nanosyringes, and each plate was bar-coded. The human sACt protein was added next followed by the remainder of the assay buffer. […]

For orientation: IC50 means the concentration at which inhibition is half-maximal. Higher therefore signals lower potency.

Molecules are shown by their SMILES.

Chain of sAC (Q96PN6 1-469): as above

Turning to `CC(Sc1nc2ccccc2[nH]1)C(=O)N/N=C/c1cc(Br)ccc1O` (centres unmarked) [KH7], the mitochondrial uncoupling entry in the data set on mouse brain mitochondria is listed as “uncoupling effect”. Besides, the “toxicity (CellTiter-Glo)” value with MEFs (2 days in culture, WT MEFs, KH7 at low μM, LRE1 up to 50 μM) is “toxic”; in the data set on MEFs (single day in culture), “neither compound exhibited significant toxicity”. Also, the figures for the “toxicity (CyQUANT)” value in data set [1] (second day) and in data set [1] (single day) were “toxic at low μM concentrations” and “neither LRE1 nor KH7 were toxic”, respectively.

As for `Cc1cccc(-n2nc(S)sc2=S)c1` [RU-0207328], the half-maximal inhibitory concentration (IC50) on human sACt protein [2] and on sAC was greater than 20 µM throughout. Further, the “Primary Screen (% NPI)” value on human sACt protein [3] is recorded as 58.1 % NPI.
